Paper PMC11864979, “First-in-class ultralong-target-residence-time p38α inhibitors as a mitosis-targeted therapy for colorectal cancer” (Nature Cancer, 2025)
Read-outs that look alike come from different tables or passages of the source.

What was measured:
Assay in all cases: selectivity profiling in a panel of 340 wild-type kinases (Reaction Biology Europe)
Type in all cases: binding
[1] = target: T1, 340 wild-type kinases (Homo sapiens, UniProt Q09013)
T1 construct: purchased Reaction Biology Europe
T1 sequence (Q09013 1-629): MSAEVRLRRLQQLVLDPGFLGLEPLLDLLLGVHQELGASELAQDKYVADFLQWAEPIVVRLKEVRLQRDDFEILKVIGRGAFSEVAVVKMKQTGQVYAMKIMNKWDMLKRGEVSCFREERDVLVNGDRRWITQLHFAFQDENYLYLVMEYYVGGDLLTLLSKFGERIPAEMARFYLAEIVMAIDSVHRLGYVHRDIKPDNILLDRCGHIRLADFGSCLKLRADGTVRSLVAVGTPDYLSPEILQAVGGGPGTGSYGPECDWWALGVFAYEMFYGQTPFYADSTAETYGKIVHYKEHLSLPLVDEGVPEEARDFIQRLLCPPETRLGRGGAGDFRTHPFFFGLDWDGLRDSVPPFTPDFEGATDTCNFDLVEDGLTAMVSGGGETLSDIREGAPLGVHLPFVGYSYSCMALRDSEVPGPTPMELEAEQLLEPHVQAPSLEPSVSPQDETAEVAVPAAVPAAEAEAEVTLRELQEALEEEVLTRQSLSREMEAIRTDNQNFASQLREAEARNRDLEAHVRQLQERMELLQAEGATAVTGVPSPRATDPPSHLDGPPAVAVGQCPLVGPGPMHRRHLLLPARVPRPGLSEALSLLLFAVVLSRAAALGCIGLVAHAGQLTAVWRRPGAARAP

[2] = target: T2, 340 wild-type kinases (Homo sapiens, UniProt Q15746)
T2 construct: purchased Reaction Biology Europe

[3] = target: T3, 340 wild-type kinases (Homo sapiens, UniProt P08631)
T3 construct: purchased Reaction Biology Europe

[4] = target: T4, 340 wild-type kinases (Homo sapiens, UniProt Q9UBS0)
T4 construct: purchased Reaction Biology Europe

[5] = target: T5, 340 wild-type kinases (Homo sapiens, UniProt P80192)
T5 construct: purchased Reaction Biology Europe

[6] = target: T6, 340 wild-type kinases (Homo sapiens, UniProt P42684)
T6 construct: purchased Reaction Biology Europe

[7] = target: T7, 340 wild-type kinases (Homo sapiens, UniProt P08581)
T7 construct: purchased Reaction Biology Europe

[8] = target: T8, 340 wild-type kinases (Homo sapiens, UniProt Q16584)
T8 construct: purchased Reaction Biology Europe

[9] = target: T9, 340 wild-type kinases (Homo sapiens, UniProt P11802)
T9 construct: purchased Reaction Biology Europe

[10] = target: T10, 340 wild-type kinases (Homo sapiens, UniProt P07947)
T10 construct: purchased Reaction Biology Europe

[11] = target: T11, 340 wild-type kinases (Homo sapiens, UniProt P07333)
T11 construct: purchased Reaction Biology Europe

[12] = target: T12, 340 wild-type kinases (Homo sapiens, UniProt Q02750)
T12 construct: purchased Reaction Biology Europe

[13] = target: T13, 340 wild-type kinases (Homo sapiens, UniProt O15530)
T13 construct: purchased Reaction Biology Europe
T13 sequence (O15530 1-556): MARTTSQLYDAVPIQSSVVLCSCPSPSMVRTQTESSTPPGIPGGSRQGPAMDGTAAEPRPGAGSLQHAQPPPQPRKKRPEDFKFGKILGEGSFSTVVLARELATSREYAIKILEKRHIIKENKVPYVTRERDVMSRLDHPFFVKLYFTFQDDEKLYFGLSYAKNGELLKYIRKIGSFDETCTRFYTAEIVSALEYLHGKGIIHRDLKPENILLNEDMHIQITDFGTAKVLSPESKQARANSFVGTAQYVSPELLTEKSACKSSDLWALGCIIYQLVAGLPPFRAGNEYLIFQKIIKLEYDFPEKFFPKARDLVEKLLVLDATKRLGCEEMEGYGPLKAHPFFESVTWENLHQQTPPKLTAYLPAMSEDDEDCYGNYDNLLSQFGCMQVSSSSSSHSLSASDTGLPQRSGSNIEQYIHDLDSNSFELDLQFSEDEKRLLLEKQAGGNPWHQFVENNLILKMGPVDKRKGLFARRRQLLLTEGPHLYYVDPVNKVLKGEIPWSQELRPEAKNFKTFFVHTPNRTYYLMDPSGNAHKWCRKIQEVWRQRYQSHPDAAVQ

T2 sequence (Q15746 whole entry): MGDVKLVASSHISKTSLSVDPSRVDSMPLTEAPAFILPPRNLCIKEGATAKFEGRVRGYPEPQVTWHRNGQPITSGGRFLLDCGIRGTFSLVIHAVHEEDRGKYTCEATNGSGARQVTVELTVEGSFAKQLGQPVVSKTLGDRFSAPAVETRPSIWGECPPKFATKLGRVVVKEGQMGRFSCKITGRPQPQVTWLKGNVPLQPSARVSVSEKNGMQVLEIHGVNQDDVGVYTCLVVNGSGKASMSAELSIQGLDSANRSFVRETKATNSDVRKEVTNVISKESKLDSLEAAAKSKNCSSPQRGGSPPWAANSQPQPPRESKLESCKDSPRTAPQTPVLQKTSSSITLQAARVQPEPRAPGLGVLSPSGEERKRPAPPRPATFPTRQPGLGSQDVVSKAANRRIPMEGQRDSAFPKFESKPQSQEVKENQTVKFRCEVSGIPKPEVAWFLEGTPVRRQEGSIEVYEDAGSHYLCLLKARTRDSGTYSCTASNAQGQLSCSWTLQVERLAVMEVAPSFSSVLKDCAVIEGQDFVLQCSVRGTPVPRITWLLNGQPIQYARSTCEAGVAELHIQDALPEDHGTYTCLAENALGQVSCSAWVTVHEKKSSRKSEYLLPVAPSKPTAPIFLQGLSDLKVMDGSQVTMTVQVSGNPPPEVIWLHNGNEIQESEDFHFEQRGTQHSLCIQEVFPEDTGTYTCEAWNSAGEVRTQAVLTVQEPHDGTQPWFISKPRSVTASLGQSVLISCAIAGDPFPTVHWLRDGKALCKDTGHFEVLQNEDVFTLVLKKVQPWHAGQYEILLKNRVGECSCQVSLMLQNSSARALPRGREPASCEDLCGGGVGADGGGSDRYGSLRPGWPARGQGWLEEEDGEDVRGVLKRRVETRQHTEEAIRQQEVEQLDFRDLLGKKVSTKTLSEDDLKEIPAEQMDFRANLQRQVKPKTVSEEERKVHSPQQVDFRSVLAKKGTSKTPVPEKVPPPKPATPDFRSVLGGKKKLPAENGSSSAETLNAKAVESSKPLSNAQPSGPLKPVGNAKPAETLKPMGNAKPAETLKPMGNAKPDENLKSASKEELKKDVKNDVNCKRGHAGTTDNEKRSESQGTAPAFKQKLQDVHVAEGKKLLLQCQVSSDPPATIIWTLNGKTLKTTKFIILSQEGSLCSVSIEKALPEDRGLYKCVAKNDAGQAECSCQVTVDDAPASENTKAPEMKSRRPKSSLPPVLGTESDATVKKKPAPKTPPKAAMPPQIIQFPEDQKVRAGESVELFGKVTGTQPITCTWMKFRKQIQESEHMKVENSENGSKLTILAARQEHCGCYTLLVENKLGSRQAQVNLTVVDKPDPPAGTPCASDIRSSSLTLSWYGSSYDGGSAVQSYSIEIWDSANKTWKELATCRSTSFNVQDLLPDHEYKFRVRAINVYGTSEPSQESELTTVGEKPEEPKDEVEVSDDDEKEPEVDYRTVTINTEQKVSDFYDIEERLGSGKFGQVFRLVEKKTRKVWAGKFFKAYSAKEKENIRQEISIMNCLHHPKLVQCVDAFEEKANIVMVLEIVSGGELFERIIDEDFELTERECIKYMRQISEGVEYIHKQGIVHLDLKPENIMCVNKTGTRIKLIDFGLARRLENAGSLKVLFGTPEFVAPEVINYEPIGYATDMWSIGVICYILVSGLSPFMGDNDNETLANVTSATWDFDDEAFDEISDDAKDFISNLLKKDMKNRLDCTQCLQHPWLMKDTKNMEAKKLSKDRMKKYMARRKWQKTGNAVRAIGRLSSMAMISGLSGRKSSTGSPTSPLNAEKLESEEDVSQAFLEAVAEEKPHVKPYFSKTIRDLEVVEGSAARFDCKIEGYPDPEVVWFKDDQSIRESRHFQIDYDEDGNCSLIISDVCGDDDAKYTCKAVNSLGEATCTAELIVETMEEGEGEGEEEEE
T5 sequence (P80192 whole entry): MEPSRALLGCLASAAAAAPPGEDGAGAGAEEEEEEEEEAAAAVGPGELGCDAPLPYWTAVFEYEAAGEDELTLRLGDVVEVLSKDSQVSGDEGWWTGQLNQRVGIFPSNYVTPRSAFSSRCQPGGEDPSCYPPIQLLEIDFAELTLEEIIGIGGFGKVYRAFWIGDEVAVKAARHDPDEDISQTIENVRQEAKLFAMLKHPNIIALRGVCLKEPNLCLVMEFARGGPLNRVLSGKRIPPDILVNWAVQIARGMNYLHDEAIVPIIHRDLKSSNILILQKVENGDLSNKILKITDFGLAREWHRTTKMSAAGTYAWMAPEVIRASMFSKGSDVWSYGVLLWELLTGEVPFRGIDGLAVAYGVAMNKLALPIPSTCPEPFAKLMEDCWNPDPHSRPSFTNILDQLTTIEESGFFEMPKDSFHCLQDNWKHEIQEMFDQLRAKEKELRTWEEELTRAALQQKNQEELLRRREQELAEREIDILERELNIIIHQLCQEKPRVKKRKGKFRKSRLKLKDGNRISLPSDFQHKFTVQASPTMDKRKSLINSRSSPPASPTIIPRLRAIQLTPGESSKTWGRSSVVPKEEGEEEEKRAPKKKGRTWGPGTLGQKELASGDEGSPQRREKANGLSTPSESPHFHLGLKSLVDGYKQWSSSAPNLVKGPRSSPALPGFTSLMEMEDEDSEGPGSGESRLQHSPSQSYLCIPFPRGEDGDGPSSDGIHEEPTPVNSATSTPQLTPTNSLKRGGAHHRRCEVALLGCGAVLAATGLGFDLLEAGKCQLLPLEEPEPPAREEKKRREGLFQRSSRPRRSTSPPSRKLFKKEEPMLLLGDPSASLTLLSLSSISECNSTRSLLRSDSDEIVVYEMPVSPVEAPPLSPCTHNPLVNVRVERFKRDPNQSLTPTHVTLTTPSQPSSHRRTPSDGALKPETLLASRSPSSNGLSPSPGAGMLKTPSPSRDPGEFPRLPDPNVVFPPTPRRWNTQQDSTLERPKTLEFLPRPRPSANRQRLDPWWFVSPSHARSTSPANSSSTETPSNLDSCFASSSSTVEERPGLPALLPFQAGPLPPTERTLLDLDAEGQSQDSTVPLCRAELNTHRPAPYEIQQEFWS
T9 sequence (P11802 whole entry): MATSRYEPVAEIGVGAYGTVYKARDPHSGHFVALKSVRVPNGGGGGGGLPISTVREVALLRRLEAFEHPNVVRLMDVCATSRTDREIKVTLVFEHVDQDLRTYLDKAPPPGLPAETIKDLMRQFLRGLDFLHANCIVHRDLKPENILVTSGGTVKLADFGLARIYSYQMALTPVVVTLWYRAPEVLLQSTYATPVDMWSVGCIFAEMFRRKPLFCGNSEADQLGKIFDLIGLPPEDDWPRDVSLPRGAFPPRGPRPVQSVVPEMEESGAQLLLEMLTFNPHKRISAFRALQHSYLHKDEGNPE
T3 sequence (P08631 whole entry): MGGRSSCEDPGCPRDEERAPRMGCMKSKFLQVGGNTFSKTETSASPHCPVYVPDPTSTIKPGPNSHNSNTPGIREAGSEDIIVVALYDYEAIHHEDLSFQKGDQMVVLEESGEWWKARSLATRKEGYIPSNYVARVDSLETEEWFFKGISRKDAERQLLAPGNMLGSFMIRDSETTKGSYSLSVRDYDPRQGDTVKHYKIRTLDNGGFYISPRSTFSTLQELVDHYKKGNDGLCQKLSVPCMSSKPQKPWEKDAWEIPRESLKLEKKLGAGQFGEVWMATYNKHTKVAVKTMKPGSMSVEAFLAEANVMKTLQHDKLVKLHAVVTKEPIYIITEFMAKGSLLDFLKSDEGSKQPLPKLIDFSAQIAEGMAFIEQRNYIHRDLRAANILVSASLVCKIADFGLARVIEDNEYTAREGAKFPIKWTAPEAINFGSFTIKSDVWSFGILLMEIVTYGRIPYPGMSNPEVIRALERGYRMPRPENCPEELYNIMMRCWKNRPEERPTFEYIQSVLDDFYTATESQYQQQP
T6 sequence (P42684 whole entry): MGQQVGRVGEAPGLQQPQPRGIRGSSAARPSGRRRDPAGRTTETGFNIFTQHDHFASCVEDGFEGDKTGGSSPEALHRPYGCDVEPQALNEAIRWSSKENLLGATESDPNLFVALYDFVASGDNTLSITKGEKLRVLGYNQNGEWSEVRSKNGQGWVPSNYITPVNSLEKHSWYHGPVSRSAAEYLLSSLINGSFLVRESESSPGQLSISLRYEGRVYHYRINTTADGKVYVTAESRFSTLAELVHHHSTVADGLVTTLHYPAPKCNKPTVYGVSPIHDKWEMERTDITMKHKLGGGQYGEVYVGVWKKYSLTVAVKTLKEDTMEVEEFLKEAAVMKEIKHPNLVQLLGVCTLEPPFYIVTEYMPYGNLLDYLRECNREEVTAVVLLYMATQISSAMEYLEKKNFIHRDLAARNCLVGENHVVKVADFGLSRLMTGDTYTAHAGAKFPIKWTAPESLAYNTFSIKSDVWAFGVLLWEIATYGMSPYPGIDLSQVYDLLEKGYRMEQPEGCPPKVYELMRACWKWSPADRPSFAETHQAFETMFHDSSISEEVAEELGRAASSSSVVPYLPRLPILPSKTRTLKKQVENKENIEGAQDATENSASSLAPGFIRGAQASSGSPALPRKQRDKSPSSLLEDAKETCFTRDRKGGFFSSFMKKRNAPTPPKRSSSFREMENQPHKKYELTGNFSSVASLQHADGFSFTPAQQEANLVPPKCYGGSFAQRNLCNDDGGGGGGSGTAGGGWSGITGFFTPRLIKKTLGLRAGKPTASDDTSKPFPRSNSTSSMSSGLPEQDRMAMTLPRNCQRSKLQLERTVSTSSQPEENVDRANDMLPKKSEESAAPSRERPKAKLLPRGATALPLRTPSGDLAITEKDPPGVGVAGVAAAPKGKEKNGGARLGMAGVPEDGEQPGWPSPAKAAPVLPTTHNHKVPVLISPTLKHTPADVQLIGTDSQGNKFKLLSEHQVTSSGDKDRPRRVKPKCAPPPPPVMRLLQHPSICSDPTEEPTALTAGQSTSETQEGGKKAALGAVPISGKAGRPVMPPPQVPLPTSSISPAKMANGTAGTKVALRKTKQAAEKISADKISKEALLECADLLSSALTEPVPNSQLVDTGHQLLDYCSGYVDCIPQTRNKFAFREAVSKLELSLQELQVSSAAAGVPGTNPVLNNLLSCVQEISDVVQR

SMILES: CNC(=O)c1ccc2c(c1)C(=O)c1ccc(Nc3ccc(F)c(NC(=O)C4CC4)c3)cc1CC2 [Compound 2015]
- remaining activity at 0.2 µM ([1]; 0.2 µM 2015, read-out: DMPK residual activity): 82.9%
- remaining activity at 1 µM ([1]; 1 µM 2015, read-out: DMPK residual activity): 90.2%
- remaining activity at 0.2 µM ([1]; DMPK, 0.2 µM, read-out: residual activity): 82.9%
- remaining activity at 1 µM ([1]; DMPK, 1 µM, read-out: residual activity): 90.2%
- remaining activity at 0.2 µM ([2]; 0.2 µM 2015, read-out: MYLK residual activity): 109%
- remaining activity at 1 µM ([2]; 1 µM 2015, read-out: MYLK residual activity): 97.7%
- remaining activity at 0.2 µM ([2]; MYLK, 0.2 µM, read-out: residual activity): 109%
- remaining activity at 1 µM ([2]; MYLK, 1 µM, read-out: residual activity): 97.7%
- remaining activity at 0.2 µM ([3]; 0.2 µM 2015, read-out: HCK residual activity): 124%
- remaining activity at 1 µM ([3]; 1 µM 2015, read-out: HCK residual activity): 109%
- remaining activity at 0.2 µM ([3]; HCK, 0.2 µM, read-out: residual activity): 124%
- remaining activity at 1 µM ([3]; HCK, 1 µM, read-out: residual activity): 109%
- remaining activity at 0.2 µM ([4]; 0.2 µM 2015, read-out: S6Kbeta residual activity): 108%
- remaining activity at 1 µM ([4]; 1 µM 2015, read-out: S6Kbeta residual activity): 109%
- remaining activity at 0.2 µM ([4]; S6Kbeta, 0.2 µM, read-out: residual activity): 108%
- remaining activity at 1 µM ([4]; S6Kbeta, 1 µM, read-out: residual activity): 109%
- remaining activity at 0.2 µM ([5]; 0.2 µM 2015, read-out: MAP3K9 residual activity): 114%
- remaining activity at 1 µM ([5]; 1 µM 2015, read-out: MAP3K9 residual activity): 96.4%
- remaining activity at 0.2 µM ([5]; MAP3K9, 0.2 µM, read-out: residual activity): 114%
- remaining activity at 1 µM ([5]; MAP3K9, 1 µM, read-out: residual activity): 96.4%
- remaining activity at 0.2 µM ([6]; 0.2 µM 2015, read-out: ABL2 residual activity): 107%
- remaining activity at 1 µM ([6]; 1 µM 2015, read-out: ABL2 residual activity): 102%
- remaining activity at 0.2 µM ([6]; ABL2, 0.2 µM, read-out: residual activity): 107%
- remaining activity at 1 µM ([6]; ABL2, 1 µM, read-out: residual activity): 102%
- remaining activity at 0.2 µM ([7]; 0.2 µM 2015, read-out: MET residual activity): 96.7%
- remaining activity at 1 µM ([7]; 1 µM 2015, read-out: MET residual activity): 93.5%
- remaining activity at 0.2 µM ([7]; MET, 0.2 µM, read-out: residual activity): 96.7%
- remaining activity at 1 µM ([7]; MET, 1 µM, read-out: residual activity): 93.5%
- remaining activity at 0.2 µM ([8]; 0.2 µM 2015, read-out: MAP3K11 residual activity): 100%
- remaining activity at 1 µM ([8]; 1 µM 2015, read-out: MAP3K11 residual activity): 93.8%
- remaining activity at 0.2 µM ([8]; MAP3K11, 0.2 µM, read-out: residual activity): 100%
- remaining activity at 1 µM ([8]; MAP3K11, 1 µM, read-out: residual activity): 93.8%
- remaining activity at 0.2 µM ([9]; 0.2 µM 2015, read-out: CDK4/CycD1 residual activity): 117%
- remaining activity at 0.2 µM ([9]; 0.2 µM 2015, read-out: CDK4/CycD2 residual activity): 109%
- remaining activity at 0.2 µM ([9]; 0.2 µM 2015, read-out: CDK4/CycD3 residual activity): 70.3%
- remaining activity at 1 µM ([9]; 1 µM 2015, read-out: CDK4/CycD1 residual activity): 98.4%
- remaining activity at 1 µM ([9]; 1 µM 2015, read-out: CDK4/CycD2 residual activity): 103%
- remaining activity at 1 µM ([9]; 1 µM 2015, read-out: CDK4/CycD3 residual activity): 81.7%
- remaining activity at 0.2 µM ([9]; CDK4/CycD1, 0.2 µM, read-out: residual activity): 117%
- remaining activity at 0.2 µM ([9]; CDK4/CycD2, 0.2 µM, read-out: residual activity): 109%
- remaining activity at 1 µM ([9]; CDK4/CycD2, 1 µM, read-out: residual activity): 103%
- remaining activity at 0.2 µM ([9]; CDK4/CycD3, 0.2 µM, read-out: residual activity): 70.3%
- remaining activity at 1 µM ([9]; CDK4/CycD3, 1 µM, read-out: residual activity): 81.7%
- remaining activity at 0.2 µM ([10]; 0.2 µM 2015, read-out: YES residual activity): 102%
- remaining activity at 1 µM ([10]; 1 µM 2015, read-out: YES residual activity): 105%
- remaining activity at 0.2 µM ([10]; YES, 0.2 µM, read-out: residual activity): 102%
- remaining activity at 1 µM ([10]; YES, 1 µM, read-out: residual activity): 105%
- remaining activity at 0.2 µM ([11]; 0.2 µM 2015, read-out: CSF1R residual activity): 97.2%
- remaining activity at 1 µM ([11]; 1 µM 2015, read-out: CSF1R residual activity): 84%
- remaining activity at 0.2 µM ([11]; CSF1R, 0.2 µM, read-out: residual activity): 97.2%
- remaining activity at 1 µM ([11]; CSF1R, 1 µM, read-out: residual activity): 84%
- remaining activity at 0.2 µM ([12]; 0.2 µM 2015, read-out: MEK1 residual activity): 105%
- remaining activity at 1 µM ([12]; 1 µM 2015, read-out: MEK1 residual activity): 99.8%
- remaining activity at 0.2 µM ([12]; MEK1, 0.2 µM, read-out: residual activity): 105%
- remaining activity at 1 µM ([12]; MEK1, 1 µM, read-out: residual activity): 99.8%
- remaining activity at 0.2 µM ([13]; 0.2 µM 2015, read-out: PDK1 residual activity): 107%
- remaining activity at 1 µM ([13]; 1 µM 2015, read-out: PDK1 residual activity): 93.7%
- remaining activity at 0.2 µM ([13]; PDK1, 0.2 µM, read-out: residual activity): 107%
- remaining activity at 1 µM ([13]; PDK1, 1 µM, read-out: residual activity): 93.7%
